Assay results as given in US12643922B2 (VIRGINIA COMMONWEALTH UNIVERSITY, priority 2021, dated 2026).
Like-named read-outs stand apart in the source and are kept apart here.

Assays:
UA sulfation = test: Inhibition of UA sulfation (formation of UA-sulfate by HPLC-MS); assay type: biochemical; details: UA concentration 2 μM, triplicate
Experimental: FIG. 5. IC50 of glycyrrhetinic acid. UA concentration was 2 μM. Determination was done in triplicate.
Table 1. IC50 values for several inhibitors of UA sulfation. UA concentration was 2 μM. Determinations were done in triplicate, and formation of UA-sulfate was determined by HPLC-MS followed by nonlinear regression with the Hill equation.

[1] = colour and water solubility with time
[2] = Solubility of ursolic acid salts in hydrophilic solvents (clear saturated solution)
Experimental: The salts were weighed, mixed with the solvent, and incubated to reach clear saturated solution (37° C. for water and ethanol; 55° C. for PEG 400 and glycerol).

[3] = cited from earlier work
[4] = cited from earlier work; remark: listed apart in the source
[5] = background statement; cited from earlier work

SMILES	Hill slope (UA sulfation; Hill equation)	IC50 (UA sulfation; Hill equation, read-out: IC50)	further results
CC(=O)O[C@H]1CC[C@@]2(C)C(=CC(=O)[C@@H]3[C@@H]2CC[C@]2(C)C(=O)CC[C@@H]32)C1 [7-oxo-DHEA acetate]	1.2 ± 0.06	20.2 ± 3.6 µM	
C[C@]12CC[C@H](O)CC1=CC(=O)C1C2CC[C@]2(C)C(=O)CCC12 (some centres unmarked) [7-oxo-DHEA]	1.2 ± 0.4	38.1 ± 1.2 µM	
C[C@]12CC[C@H](O)CC1=CC[C@@H]1[C@@H]2CC[C@]2(C)C(=O)CC[C@@H]12 [DHEA, dehydroepiandrosterone]	1.4 ± 0.1	1.2 ± 0.1 µM	
CC1(C)[C@@H](O)CC[C@]2(C)[C@H]3C(=O)C=C4[C@@H]5C[C@@](C)(C(=O)O)CC[C@]5(C)CC[C@@]4(C)[C@]3(C)CC[C@@H]12 [Glycyrrhetinic acid]	4.8 ± 3.5	14 ± 0.2 µM	IC50 (UA sulfation; 95% CI, read-out: IC50 (FIG. 5)): 18.6 µM
C=C1C[C@@]23CC[C@H]4[C@@](C)(CCC[C@@]4(C)C(=O)O)[C@@H]2CC[C@]1(O)C3 [Steviol]	1.4 ± 0.1	11.8 ± 1.8 µM	
C[C@H]1CC[C@]2(NC1)O[C@H]1C[C@H]3[C@@H]4CC[C@H]5C[C@@H](O)CC[C@]5(C)[C@H]4CC[C@]3(C)[C@H]1[C@@H]2C [Tomatidine]	0.5 ± 0.03	84.8 ± 5.1 µM	
C[C@H]1[C@H](C)CC[C@]2(C(=O)O)CC[C@]3(C)C(=CC[C@@H]4[C@@]5(C)CC[C@H](O)C(C)(C)[C@@H]5CC[C@]43C)[C@H]12 [UAdC-O, ursolic acid dicholine complex]			stability [1]: unstable
C[C@H]1[C@H](C)CC[C@]2(C(=O)O)CC[C@]3(C)C(=CC[C@@H]4[C@@]5(C)CC[C@H](O)C(C)(C)[C@@H]5CC[C@]43C)[C@H]12 [UAdC-W, ursolic acid dicholine hydroxide hydrated complex]			stability [1]: stable
C[C@H]1[C@H](C)CC[C@]2(C(=O)[O-])CC[C@]3(C)C(=CC[C@@H]4[C@@]5(C)CC[C@H](O)C(C)(C)[C@@H]5CC[C@]43C)[C@H]12.C[N+](C)(C)CCO [UAmC, monocholine ursolate]			PEG400 solubility compared to UAK ([2]; PEG400, data not shown): lower solubility; ethanol solubility, comparison ([2]; ethanol, FIG. 1B): less than UAK
C[C@@H]1CC[C@]2(C(=O)O)CC[C@]3(C)C(=CCC4[C@@]5(C)CC[C@H](O)C(C)(C)C5CC[C@]43C)C2[C@H]1C (some centres unmarked) [Ursolic acid]			pKa of carboxylic acid [3]: 4.7; oral bioavailability [4]: less than 1%; solubility in water [5]: less than 1 μg/mL
